Measured values reported in ChEMBL document CHEMBL4052707, “Structure-activity relationships of 3-O-β-chacotriosyl oleanic acid derivatives as entry inhibitors for highly pathogenic H5N1 influenza virus” (Bioorg Med Chem, 2017).
pIC50, pKd: −log10 of the molar value. Active and inactive are the calls of the source. No cut-off for these calls is given here.

How the values were obtained:
[1] = tested on: Influenza A virus (A/Puerto Rico/8/1934(H1N1)); assay: Inhibition of Influenza A virus (A/Puerto Rico/8/34(H1N1)) […] hemagglutination of chicken RBC at 20 uM incubated for 1 hr followed by chicken RBC addition measured for 10 mins
[2] = tested on: Influenza A virus (A/Viet Nam/1203/2004(H5N1)); assay: (§1) Binding affinity to Influenza A virus (A/Viet Nam/1203/2004(H5N1)) Fc-tagged hemagglutinin 2 after 250 secs by SPR analysis
[3] = as §1
[4] = Selectivity index, ratio of CC50 for MDCK cells to IC50 for Influenza A virus (A/Thailand/Kan353/2004(H5N1); assay type: toxicity; conditions: dog, read-out: Ratio CC50/IC50
[5] = Cytotoxicity against MDCK cells after 2 days by MTT assay; assay type: cell-based, Canis lupus familiaris; conditions: dog
[6] = Antiviral activity against Influenza A virus (A/Thailand/Kan353/2004(H5N1)) co-expressing NA plasmid infected in 293T cells assessed as inhibition of viral entry incubated for 30 mins followed by addition of cells measured after 48 hrs by luciferase reporter gene assay; assay type: functional, cell-based; conditions: HEK-293T
[7] = tested on: Human immunodeficiency virus 1; assay: Antiviral activity against VSV-g pseudotyped HIV1 infected in 293T cells cotransfected with HA and NA plasmid incubated for 30 mins followed by addition of cells measured after 48 hrs by luciferase reporter gene assay; assay type: functional, cell-based
Influenza A virus = assay: Inhibition of Influenza A virus H5N1 neuraminidase N1 subtype at 20 uM/L after 30 mins by fluorescence assay
[8] = target: Peptidyl-prolyl cis-trans isomerase FKBP1A (Homo sapiens) (UniProt P62942); assay: Binding affinity to FKBP12 (unknown origin) after 250 secs by SPR analysis
[9] = (§2) Binding affinity to Influenza A virus (A/Vietnam/1194/2004(H5N1)) His-tagged hemagglutinin after 250 secs by SPR analysis
[10] = tested on: Influenza A virus (A/Vietnam/1194/2004(H5N1)); assay: as §2

Peptidyl-prolyl cis-trans isomerase FKBP1A (Homo sapiens), sequence (P62942 whole entry): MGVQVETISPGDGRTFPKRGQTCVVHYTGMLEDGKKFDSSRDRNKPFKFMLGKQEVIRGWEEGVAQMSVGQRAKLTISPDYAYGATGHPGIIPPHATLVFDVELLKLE

Structure (SMILES) | inhibition [1] | Activity [2] | pKd [3] | selectivity ratio [4] | CC50 at 48 h [5] | pIC50 [6] | Activity [7] | inhibition (Influenza A virus) | Activity [8] | pKd [9] | Activity [10]
C[C@@H]1O[C@@H](O[C@H]2[C@H](O[C@H]3CC[C@]4(C)[C@H]5C(=O)C=C6[C@@H]7CC(C)(C)CC[C@]7(C(=O)OCc7ccccc7)CC[C@@]6(C)[C@]5(C)CC[C@H]4C3(C)C)O[C@H](CO)[C@@H](O[C@@H]3O[C@@H](C)[C@H](O)[C@@H](O)[C@H]3O)[C@@H]2O)[C@H](O)[C@H](O)[C@H]1O | inactive | Dose-dependent effect | 8.41 | 22.9 | 92.7 µM | 5.39 | inactive | inactive | inactive | 7.21 | Dose-dependent effect
CC1(C)CC[C@]2(C(=O)OCc3ccccc3)CC[C@]3(C)C(=CC[C@@H]4[C@@]5(C)CC[C@H](O[C@@H]6O[C@H](CO)[C@@H](O[C@@H]7OC[C@H](O)[C@H](O)[C@H]7O)[C@H](O)[C@H]6O[C@@H]6OC[C@H](O)[C@H](O)[C@H]6O)C(C)(C)[C@@H]5CC[C@]43C)[C@@H]2C1 |  |  |  | < 1 | 26.4 µM | < 4.30 |  |  |  |  | 
C[C@H]1O[C@H](O[C@@H]2[C@H](O)[C@@H](O[C@H]3O[C@H](C)[C@@H](O)[C@H](O)[C@@H]3O)[C@H](O[C@H]3CC[C@]4(C)[C@H]5CC=C6[C@@H]7CC(C)(C)CC[C@]7(C(=O)OCc7ccccc7)CC[C@@]6(C)[C@]5(C)CC[C@H]4C3(C)C)O[C@@H]2CO)[C@@H](O)[C@@H](O)[C@@H]1O |  |  |  | 8.8 | 82.4 µM | 5.03 |  |  |  |  | 
COC(=O)[C@]12CCC(C)(C)C[C@H]1C1=CC[C@@H]3[C@@]4(C)CC[C@H](O[C@@H]5O[C@H](CO)[C@@H](O)[C@H](O[C@@H]6O[C@@H](C)[C@H](O)[C@@H](O)[C@H]6O)[C@H]5O[C@@H]5O[C@@H](C)[C@H](O)[C@@H](O)[C@H]5O)C(C)(C)[C@@H]4CC[C@@]3(C)[C@]1(C)CC2 |  |  |  | < 1 | 22.4 µM | < 4.30 |  |  |  |  | 
COC(=O)[C@]12CCC(C)(C)C[C@H]1C1=CC[C@@H]3[C@@]4(C)CC[C@H](O[C@@H]5O[C@H](CO)[C@@H](O)[C@H](O)[C@H]5O[C@@H]5O[C@@H](C)[C@H](O)[C@@H](O)[C@H]5O)C(C)(C)[C@@H]4CC[C@@]3(C)[C@]1(C)CC2 |  |  |  | 1.4 | 23.6 µM | 4.79 |  |  |  |  | 
C[C@@H]1O[C@@H](O[C@H]2[C@H](O[C@@H]3CC[C@]4(C)[C@H]5CC=C6[C@@H]7CC(C)(C)CC[C@]7(C(=O)OCc7ccccc7)CC[C@@]6(C)[C@]5(C)CC[C@H]4C3(C)C)O[C@H](CO)[C@@H](O[C@@H]3O[C@@H](C)[C@H](O)[C@@H](O)[C@H]3O)[C@@H]2O)[C@H](O)[C@H](O)[C@H]1O |  | Dose-dependent effect | 9.26 | > 34 | > 200 µM | 5.23 | inactive | inactive | inactive | 6.35 | Dose-dependent effect
CC1(C)CC[C@]2(C(=O)OCc3ccccc3)CC[C@]3(C)C(=CC[C@@H]4[C@@]5(C)CC[C@H](O[C@@H]6O[C@H](CO)[C@@H](O[C@H]7OC[C@@H](O)[C@H](O)[C@H]7O)[C@H](O)[C@H]6O[C@H]6OC[C@@H](O)[C@H](O)[C@H]6O)C(C)(C)[C@@H]5CC[C@]43C)[C@@H]2C1 |  |  |  | < 1 | 20.8 µM | < 4.30 |  |  |  |  | 
COC(=O)[C@]12CCC(C)(C)C[C@H]1C1=CC(=O)[C@@H]3[C@@]4(C)CC[C@H](O[C@@H]5O[C@H](CO)[C@@H](O[C@@H]6O[C@@H](C)[C@H](O)[C@@H](O)[C@H]6O)[C@H](O)[C@H]5O[C@@H]5O[C@@H](C)[C@H](O)[C@@H](O)[C@H]5O)C(C)(C)[C@@H]4CC[C@@]3(C)[C@]1(C)CC2 |  |  |  | 8.3 | 33.8 µM | 5.39 |  |  |  |  | 
COC(=O)[C@]12CCC(C)(C)C[C@H]1C1=CC[C@@H]3[C@@]4(C)CC[C@H](O[C@@H]5O[C@H](CO)[C@H](O[C@H]6O[C@H](C)[C@@H](O)[C@H](O)[C@@H]6O)[C@H](O)[C@H]5O[C@H]5O[C@H](C)[C@@H](O)[C@H](O)[C@@H]5O)C(C)(C)[C@@H]4CC[C@@]3(C)[C@]1(C)CC2 |  |  |  | 4.1 | 45.6 µM | 4.95 |  |  |  |  | 
C[C@H]1O[C@H](O[C@H]2[C@H](O[C@H]3CC[C@]4(C)[C@H]5CC=C6[C@@H]7CC(C)(C)CC[C@]7(C(=O)OCc7ccccc7)CC[C@@]6(C)[C@]5(C)CC[C@H]4C3(C)C)O[C@H](CO)[C@@H](O[C@H]3O[C@H](C)[C@@H](O)[C@H](O)[C@@H]3O)[C@@H]2O)[C@@H](O)[C@@H](O)[C@@H]1O |  |  |  | < 1 | 52.4 µM | < 4.30 |  |  |  |  | 
COC(=O)[C@]12CCC(C)(C)C[C@H]1C1=CC[C@@H]3[C@@]4(C)CC[C@@H](O[C@@H]5O[C@H](CO)[C@@H](O[C@@H]6O[C@@H](C)[C@H](O)[C@@H](O)[C@H]6O)[C@H](O)[C@H]5O[C@@H]5O[C@@H](C)[C@H](O)[C@@H](O)[C@H]5O)C(C)(C)[C@@H]4CC[C@@]3(C)[C@]1(C)CC2 |  |  |  | > 40 | > 200 µM | 5.30 |  |  |  |  | 
COC(=O)[C@]12CCC(C)(C)C[C@H]1C1=CC[C@@H]3[C@@]4(C)CC[C@H](O[C@@H]5O[C@H](CO)[C@@H](O[C@@H]6O[C@@H](C)[C@H](O)[C@@H](O)[C@H]6O)[C@H](O)[C@H]5O[C@@H]5O[C@@H](C)[C@H](O)[C@@H](O)[C@H]5O)C(C)(C)[C@@H]4CC[C@@]3(C)[C@]1(C)CC2 |  |  |  | 3.6 |  | 5.32 |  |  |  |  | 
CC1(C)CC[C@]2(C(=O)OCc3ccccc3)CC[C@]3(C)C(=CC[C@@H]4[C@@]5(C)CC[C@H](O[C@@H]6O[C@H](CO)[C@@H](O[C@@H]7OC[C@@H](O)[C@@H](O)[C@@H]7O)[C@H](O)[C@H]6O[C@@H]6OC[C@@H](O)[C@@H](O)[C@@H]6O)C(C)(C)[C@@H]5CC[C@]43C)[C@@H]2C1 |  |  |  | < 1 | 48.2 µM | < 4.30 |  |  |  |  | 
COC(=O)[C@]12CCC(C)(C)C[C@H]1C1=CC[C@@H]3[C@@]4(C)CC[C@H](O[C@@H]5O[C@H](CO)[C@@H](O)[C@H](O[C@@H]6O[C@@H](C)[C@H](O)[C@@H](O)[C@H]6O)[C@H]5O)C(C)(C)[C@@H]4CC[C@@]3(C)[C@]1(C)CC2 |  |  |  | < 1 | 25.3 µM | < 4.30 |  |  |  |  | 
C[C@@H]1O[C@H](O[C@H]2[C@H](O[C@H]3CC[C@]4(C)[C@H]5CC=C6[C@@H]7CC(C)(C)CC[C@]7(C(=O)OCc7ccccc7)CC[C@@]6(C)[C@]5(C)CC[C@H]4C3(C)C)O[C@H](CO)[C@@H](O[C@H]3O[C@@H](C)[C@@H](O)[C@@H](O)[C@@H]3O)[C@@H]2O)[C@@H](O)[C@H](O)[C@@H]1O |  |  |  | 3.2 | 27.4 µM | 5.06 | inactive | inactive |  |  | 
O=C(NCCN1CCCCC1)c1cc(F)cc(C(F)(F)F)c1 |  |  |  | 332 |  | 5.35 |  |  |  |  | 
C[C@@H]1O[C@@H](O[C@H]2[C@H](O[C@H]3CC[C@]4(C)[C@H]5CC=C6[C@@H]7CC(C)(C)CC[C@]7(C(=O)OCc7ccccc7)CC[C@@]6(C)[C@]5(C)CC[C@H]4C3(C)C)O[C@H](CO)[C@@H](O[C@@H]3O[C@@H](C)[C@H](O)[C@@H](O)[C@H]3O)[C@@H]2O)[C@H](O)[C@H](O)[C@H]1O |  |  |  | 4.9 | 23.5 µM | 5.32 |  |  |  |  | 
